This note sets out measurements from patent publication US8630703B2, “Treatment utilizing hydrophobic weak bases chemotherapeutic agents and illumination” (Technion Research & Development Foundation Limited, priority 2011, dated 2014).

Data set [1] deals with A549/K1.5 cells. Put plainly: Live cell fluorescent imaging (lysosomal localization and photodestruction). The following applies: for effect on lysosomal accumulation of C-1330: pre-incubation 10 mM ammonium chloride 30 min or 1 μM bafilomycin A1 60 min. The data set is classed as cell-based, Human. The method, then:
(§1) Lysosomes and mitochondria were stained by incubating the cells 100 nM LysoTracker® Red or 100 nM MitoTracker® Red, respectively, for 1 hour. For subcellular localization of C-1330, cells were also stained with 10 μM C-1330 for 30 minutes.
(§2) Nuclear staining was performed prior to fluorescence imaging by replacing the growth medium with medium containing 2 μg/ml Hoechst 33342, followed by incubation for 10 minutes. Prior to nuclear staining, A549/K1.5 cells were incubated for 1 hour with 10 μM fumitremorgin C (FTC) to prevent efflux of Hoechst 33342 by ABCG2.
(§3) Live cell fluorescent imaging was performed using an Axiovert 200 inverted fluorescence microscope (Carl Zeiss) equipped with a digital camera. […] Light intensity was maintained at 12.5% of the maximum. The magnification used was ×630.
(§4) Cells were pre-incubated with 10 mM ammonium chloride for 30 minutes or with 1 μM bafilomycin A1 for 60 minutes, prior to being incubated with 10 μM C-1330 for 30 minutes as described hereinabove. Ammonium chloride and bafilomycin A1 remained present during the incubation with C-1330.
A549/K1.5 cells were incubated with 10 μM doxorubicin for 30 minutes, and then observed and illuminated (at 470 nm) by live cell fluorescent imaging as described in the Materials and Methods section. Upon illumination, the cells were photographed every second, in order to observe changes in the cells over time.

Data set [2] deals with chicken chorioallantoic membrane (CAM) vasculature. In words: Chorioallantoic membrane (CAM) model of photodynamic therapy. It counts as in vivo. The following applies: for vascular effect in illuminated area: 420 nm. The method, then:
Fertilized chicken eggs (Animalco AG) were labeled and transferred into a hatching incubator with a relative air humidity of 65% and a temperature of 37° C. The incubator was equipped with an automatic fan (Savimat). On embryonic development day (EDD) 3, a hole of approximately 3 mm in diameter was opened in the eggshell above the air pouch of the egg and covered with Parafilm® wrapping film (Pechiney) to prevent dehydration and possible infections. The eggs were then returned to the incubator in a static position until use. On EDD 11, the hole in the shell was extended to a diameter of approximately 3 cm in order to provide better access to the chorioallantoic membrane (CAM) during experiments.
Eggs were placed under an Eclipse 600 FN epi-fluorescence microscope equipped with a Plan Apo 4/0.2, working distance 20 objective (Nikon). Microscopic observation and illumination of a region of the CAM was performed as described previously [Lim et al., Photochem Photobiol 2010, 86:397-402; Lim et al., J Med Chem 2010, 53:2865-2874; Nowak-Sliwinska et al., Angiogenesis 2010, 13:281-292]. Illumination was provided by a 100 W high pressure Hg-arc lamp. Light doses were adjusted with neutral density filters and measured with a calibrated Field-Master GS power meter (Coherent Inc.). Fluorescence images were acquired with an F-view II 12-bit monochrome Peltier-cooled digital CCD camera driven with analySIS DOCU software (Soft Imaging System GmbH).
For excitation and detection of imidazoacridinones (IAs) or sunitinib, the microscope was equipped with a filter set (Nikon) characterized by excitation wavelengths of 420±20 nm and emission wavelengths of >470 nm,
After the treatment the eggs were numbered, covered and returned to the incubator. Each treatment group included 5 eggs.
Chorioallantoic membranes (CAMs) were intravenously injecting chorioallantoic membranes with 20 μl of a solution of FITC-dextran (20 kDa, 25 mg/ml). Fluorescence angiography was then performed using light from an Hg-arc lamp and light filters (Nikon) which provided excitation wavelengths of 470±20 nm and emission wavelengths of >520 nm for observing the fluorescence. In order to increase the quality of the recorded angiographs, a light absorber, in the form of India ink, was injected (30 μl) into the extra-embryonic cavity. The purpose of this second injection was to decrease the influence of the CAM auto-fluorescence background, which changes rapidly with time due to the embryo's movement. The India ink was filtered shortly before injection, using a sterile cellulose acetate membrane with 0.2 μm pores (Renner GmbH).
Photodynamic therapy (PDT) was performed at embryo development day (EDD) 11, at which stage the CAM is fully developed and contains a vessel network with a regular capillary plexus. The imidazoacridinones were intravenously injected into the main vessel of the CAM through a 33-gauge needle fitted to a 100 μl syringe (Hamilton), at a concentration of 1 mg/ml and a volume of 100 μl, which corresponds to a dose of 100 μg, or approximately 10 mg/kg embryo body weight.
One minute after injection, a region of the CAM which contained vessels of diameters in a range of 5 to 70 μm was illuminated (420±20 nm) at a light dose of 20 J/cm^2 and an irradiance of […]. […]
The illuminated area was 0.02 cm^2, as delimited by an optical diaphragm. The fluorescence of sunitinib was visible in the vasculature of the CAMs prior to PDT.

The test system of data set [3] is A549 cells. Put plainly: XTT cytotoxicity assay with and without illumination.
Protocol: (§5) Parental cells and their MDR (multi-drug resistant) sub-lines were seeded in 96-well plates (2×10^4 cells/well in 90 μl growth medium/well). […] Following incubation for 2 hours, the drug-containing medium was replaced by drug-free medium. The cells were then placed on an illuminator plate (Model 460, thin line series, S&S X-Ray Products Inc., Brooklyn, N.Y.) for 1 hour, thereby achieving a light dose of 5 J/cm^2 white light. After illumination, plates were further incubated for an additional 24 hours.
Cell viability was determined using an XTT (2,3-bis-(2-methoxy-4-nitro-5-sulfophenyl)-2H-tetrazolium-5-carboxanilide) Cell Proliferation Kit (Biological Industries). […] Results are presented as mean values of at least three independent experiments.
Data set [4] can be described thus: Absorption, emission and excitation spectra. The following applies: aqueous 0.9% NaCl. The data set is classed as physicochemical. The method, then: Stock solutions containing sunitinib or the imidazoacridinones (IAs) C-1375 and C-1379 in 100% dimethyl sulfoxide were diluted with aqueous 0.9% NaCl solution under continuous stirring. Absorption spectra were recorded with a two-beam Cary 500 UV-VIS-NIR spectrophotometer (Varian) in 1 cm long Suprasil® quartz cuvettes (Hellma), at an average scan speed of 600 nm/minute, at 20° C. The steady state emission and excitation spectra were recorded with an LS 50B luminescence spectrometer (Perkin-Elmer).

Data set [5] concerns A549/K1.5 cells. In words: XTT cytotoxicity assay with and without illumination. The data set is classed as cell-based, Human. The following applies: A549/K1.5.
Protocol: Human non-small cell lung cancer A549 cells and their ABCG2-overexpressing MDR (multi-drug resistant) A549/K1.5 sub-line; ovarian carcinoma cell line 2008 and its stable MRP1-transfectant 2008/MRP1; and human non-small lung cancer cell line SW1573 and its ABCB1-overexpressing subline SW1573/2R160) were maintained in RPMI-1640 medium supplemented with 10% fetal bovine serum, 2 mM glutamine, 100 μg/ml penicillin and streptomycin (Biological Industries, Beth-Haemek, Israel) in a humid atmosphere containing 5% CO2 at 37° C.
as §5
Cell viability was determined using an XTT (2,3-bis-(2-methoxy-4-nitro-5-sulfophenyl)-2H-tetrazolium-5-carboxanilide) Cell Proliferation Kit (Biological Industries). The drug concentrations required to inhibit cell growth by 50% (i.e., IC50 values) were determined from the cell survival curves in the absence and in the presence of illumination. Results are presented as mean values of at least three independent experiments.
Data set [6] relates to Human A2780 ovarian carcinoma tumors. Put plainly: PDT of tumors transplanted onto CAM. It counts as in vivo. The conditions noted are these: 12 μg per embryo i.v., 420 nm 34 J/cm^2, two rounds; vs C-1379 without illumination. The method, then:
Human A2780 ovarian carcinoma cells were used to establish tumor xenografts in the CAM. Tumor spheroids were grown by a hanging drop technique, resulting in spheroids with a predefined size. A2780 cells were suspended in medium containing 20% Methocel™ (Sigma-Aldrich, St. Louis, USA), and 50 μl drops (1×10^6 cells/drop) were dispensed on the internal part of the lid of a Petri dish. After 24 hours, spheroids were harvested and placed on the CAM at embryonic development day (EDD) 7. Two transplanted human A2780 ovarian carcinoma tumor spheroids, containing 10^6 cells, were grown on a single CAM, and 300 μM C-1379 was injected intravenously at a concentration of 12 μg per embryo at EDD 11.
Prior to further treatment, both tumors were imaged by imidazoacridinone (C-1379) fluorescence angiography, as described hereinabove. One minute after C-1379 administration, one of the tumors was illuminated at a wavelength of 420 nm (34 J/cm^2, 70 mW/cm^2). 24 hours later, both tumors were visualized by FITC-dextran angiography, as described hereinabove, and by standard photography. Immediately thereafter, a second round of C-1379 intravenous administration and PDT (on one of the tumors) was performed as previously. The CAM was then incubated for two more days. […]

For data set [7], the system named is A549 cells. Put plainly: Live cell fluorescent imaging (lysosomal localization and photodestruction). It counts as cell-based, Human. The conditions noted are these: pre-incubation 10 mM ammonium chloride 30 min or 1 μM bafilomycin A1 60 min. The method, then: as §1, §2, §3, §4
Monolayers of A549 cells were grown in glass-bottom plates and were washed in growth medium. The medium was then replaced with a special isotonic balanced salt solution lacking or containing either N,N′-dimethylthiourea (DMTU), a potent hydroxyl radical and hydrogen peroxide scavenger, L-histidine, a hydroxyl radical and singlet oxygen radical (^1O2) scavenger, or sodium azide, a singlet oxygen radical scavenger. The salt solution consisted of 10 mM HEPES pH 7.4, 120 mM NaCl, 5 mM KCl, 1 mM CaCl2, 1 mM MgCl2, and 25 mM glucose. After incubation for 1 hour, C-1330 was added to the aforementioned solution buffer for an additional 30 minutes, during which the scavengers remained present, in order to load lysosomes. The cells were then examined by fluorescent imaging as described hereinabove.

Data set [8] relates to A549 cells. Put plainly: Lysosome quantification by LysoTracker Red fluorescence. It counts as cell-based, Human. The following applies: for increase in lysosomal fluorescence compared to untreated cells: 20 μM. The method, then:
A549 cells were seeded in 96-well plates at a concentration of 500 cells/well for the 48 hour chloroquine treatment, or at a concentration of 1000 cells/well for the 24 hour chloroquine treatment, in a total volume of 100 μl of medium per well. Following an overnight incubation, chloroquine was then added at the indicated concentrations for 24 or 48 hours. Lysosomes were then stained with LysoTracker® Red, detected by fluorescent imaging as described hereinabove, and quantified using EZQuant software.

On to `CCN(CC)CCNc1ccc2ncn3c4ccc(O)cc4c(=O)c1c23` [C-1311], for which, in data set [1] (MDR cells, 20 μM C-1311 + 10 μM fumitremorgin C, 2 hours, illumination), the “lysosomal photodestruction on co-treatment with ABCG2 inhibitor” value was “intense lysosomal photodestruction”.

With `CCN(CC)CCCNc1ccc2nc(C)n3c4ccc(OC)cc4c(=O)c1c23` [C-1379], the “vascular effect in illuminated area” value was “massive occlusion of the capillary network” in data set [2] (1 μg/embryo i.v., 20 J/cm^2, 24 hours after illumination) and “vaso-occlusion within the illuminated area” in data set [2] (100 μg/embryo i.v., 20 J/cm^2, 1 minute after injection, 24 hours after treatment). The Fold sensitization stood at 32 in data set [3] (control vs illumination) and 20 in data set [5] (control vs illumination). Also, the “Survival at 3000 nM Control” value in data set [3] (no illumination) is 60 ± 1%; in data set [5] (no illumination) it was 82 ± 4%. In addition, the “LD50 Control” value in data set [3] (no illumination, 2 h drug, XTT 24 h later) was determined as 6.349 ± 0.867 µM; in data set [5] (no illumination), 15.192 ± 0.58 µM. The figures for the “LD50 Illumination” value in data set [3] (white light 1 hour (5 J/cm^2)) and in data set [5] (white light 1 hour (5 J/cm^2)) were 199 ± 31 nM and 747 ± 45 nM, respectively. Also, the “Survival at 3000 nM Illumination” value turned out to be 2 ± 0.3% in data set [3] (white light illumination) and 7 ± 0.1% in data set [5] (white light illumination). Besides, in data set [4], the Peak absorption is reported as 443 nm. For the same compound, the Peak emission in data set [4] is reported as 554 nm. Moreover, in data set [4], the Peak excitation is recorded as 447 nm. Further, in data set [6], the “effect on tumor growth” value was “inhibition of tumor growth”. Besides, the “effect on tumor vasculature” value in data set [6] was “vaso-occlusion and destruction of tumor vasculature”.

On to `Cl.N` [ammonium chloride], for which the “effect on lysosomal accumulation of C-1330” value in data set [7] and in data set [1] (A549/K1.5) was “completely abolished” each time.

In the case of `CO/C1=C\C(C)=C\[C@@H](C)[C@@H](O)[C@@H](C)C/C(C)=C/C=C/[C@H](OC)[C@@H]([C@@H](C)[C@@H](O)[C@H](C)[C@@]2(O)C[C@@H](O)[C@H](C)[C@@H](C(C)C)O2)OC1=O` [bafilomycin A1], the “effect on lysosomal accumulation of C-1330” value in data set [7] and in data set [1] (A549/K1.5) was “completely abolished” each time.

Regarding `CCN(CC)CCCC(C)Nc1ccnc2cc(Cl)ccc12` (stereo not shown) [chloroquine], the “increase in lysosomal fluorescence compared to untreated cells” value in data set [8] (24 hours) was determined as 8.4 fold; in data set [8] (48 hours), 21.7 fold. For the same compound, the “increase in the lysosomes, dose relation” value in data set [8] (20, 50 or 100 μM, 24 hours) was “dose-dependent”.

On to `COc1cccc2c1C(=O)c1c(O)c3c(c(O)c1C2=O)C[C@@](O)(C(=O)CO)C[C@@H]3O[C@H]1C[C@H](N)[C@H](O)[C@H](C)O1` [doxorubicin], for which the “lysosomal photodestruction upon illumination” value in data set [1] (A549/K1.5, 10 μM, 470 nm, 20 seconds of illumination) is listed as “nearly all of the lysosomes had ruptured”.

In the case of `CCN(CC)CCNC(=O)c1c(C)[nH]c(/C=C2\C(=O)Nc3ccc(F)cc32)c1C` [sunitinib, reference compound], the “location of drug fluorescence in CAM” value in data set [2] (administered intravenously) was “visible within the vasculature”; in data set [2] (administered topically) it was “visible exclusively outside the vasculature”.
